Measured values as given in patent US6476263B1, “Compounds for inhibiting β-amyloid peptide release and/or its synthesis” (Elan Pharmaceuticals, Inc., priority 1996, dated 2002).
Non-standard residues stand in square brackets, D forms with d. Residues, ends and D or L forms follow the SMILES beside them. ξ: configuration not given here. *: point of attachment. Isovaleryl = CC(C)CC(=O)*; ξChg = NC(C(=O)O)C1CCCCC1

Structure (SMILES)	melting point [°C]
CC(C)COC(=O)[C@H](C)NC(=O)[C@@H](NC(=O)[C@@H](NC(=O)CC(C)C)C(C)C)c1ccccc1 [Example 83, N-[N-[N-(Isovaleryl)-L-valinyl]-L-phenylglycinyl]-L-alanine iso-butyl Ester]	217 to 221
CC(C)COC(=O)[C@H](C)NC(=O)[C@H](Cc1ccccc1)NC(=O)CC(C)C [Example 84, N-[N-(Isovaleryl)-L-phenylalaninyl]-L-alanine iso-butyl Ester]	135 to 138
CCOC(=O)[C@H](C)NC(=O)[C@H](C)NC(=O)Cc1cc(F)cc(F)c1 [Example 85, N-[N-(3,5-Difluorophenylacetyl)-L-alaninyl]-L-alanine Ethyl Ester]	197 to 199
COC(=O)[C@H](Cc1c[nH]c2ccccc12)NC(=O)[C@H](C)NC(=O)Cc1cc(F)cc(F)c1 [Example 106, N-[N-(3,5-Difluorophenylacetyl)-L-alaninyl]-L-tryptophan Methyl Ester]	191 to 193
CCOC(=O)[C@H](C)NC(=O)[C@@H](NC(=O)Cc1ccccc1)c1ccccc1 [Example 108, N-[N-(Phenylacetyl)-L-phenylglycinyl]-L-alanine Ethyl Ester] (HELM PEPTIDE1{[O=C(Cc1ccccc1)[*:2]].[Phg].A.[CCO[*:1]]}$$$$V2.0)	208 to 210
COC(=O)[C@@H](NC(=O)[C@H](Cc1ccccc1)NC(=O)[C@H](C)NC(=O)Cc1cc(F)cc(F)c1)c1ccccc1 [Example 109, N-[N-[N-(3,5-Difluorophenylacetyl)-L-alaninyl]-L-phenylalaninyl]-L-phenylglycine Methyl Ester]	203 to 207
CCOC(=O)[C@H](C)NC(=O)[C@@H](NC(=O)CC1CCCCC1)c1ccccc1 [Example 110, N-[N-(Cyclohexylacetyl)L-phenylglycinyl]-L-alanine Ethyl Ester]	196 to 198
CCOC(=O)[C@H](CO)NC(=O)[C@H](C)NC(=O)Cc1cccc([N+](=O)[O-])c1 [Example 117, N-[N-(3-Nitrophenylacetyl)-L-alaninyl]-L-serine Ethyl Ester]	179 to 181
CCOC(=O)C(NC(=O)[C@H](C)NC(=O)Cc1cc(F)cc(F)c1)C1CCCCC1 (stereo partly drawn) [Example 126, Ethyl N-[N-(3,5-Difluorophenylacetyl)-L-alaninyl]-2-amino-2-cyclohexylacetate]	146 to 150
CCOC(=O)[C@H](C)NC(=O)C(NC(=O)CC(C)C)C1CCCCC1 (stereo partly drawn) [Example 128, N-[N-(Isovaleryl)-2-amino-2-cyclohexylacetyl]-L-alanine Ethyl Ester] (Isovaleryl-[ξChg]-Ala-OEt)	220 to 224
COC(=O)[C@H](Cc1ccccc1)NC(=O)[C@H](C)NC(=O)Cc1cccnc1 [Example 131, N-[N-(3-Pyridylacetyl)-L-alaninyl]-L-phenylalanine Methyl Ester]	150 to 152
COC(=O)[C@H](Cc1ccccc1)NC(=O)[C@H](C)NC(=O)Cc1ccccn1 [Example 132, N-[N-(2-Pyridylacetyl)-L-alaninyl]-L-phenylalanine Methyl Ester]	137 to 139
COC(=O)[C@H](Cc1ccccc1)NC(=O)[C@H](C)NC(=O)Cc1ccncc1 [Example 133, N-[N-(4-Pyridylacetyl)-L-alaninyl]-L-phenylalanine Methyl Ester]	152 to 154
CCOC(=O)C(NC(=O)[C@H](C)NC(=O)Cc1cc(F)cc(F)c1)c1ccccc1F (stereo partly drawn) [Example 135, Ethyl N-[N-(3,5-Difluorophenylacetyl)-L-alaninyl]-2-amino-2-(2-fluorophenyl)acetate]	153 to 170
CC[C@H](NC(=O)[C@H](C)NC(=O)Cc1cc(F)cc(F)c1)C(=O)OC [Example 160, Methyl N-[N-(3,5-difluorophenylacetyl)-L-alaninyl]-(S)-2-aminobutanoate]	103 to 106
COC(=O)C(NC(=O)[C@H](C)NC(=O)Cc1cc(F)cc(F)c1)c1cc2cc(Cl)ccc2s1 (stereo partly drawn) [Example 173, Methyl N-[N-(3,5-Difluorophenylacetyl)-L-alaninyl]-2-amino-2-(5-chlorobenzothiophen-2-yl)acetate]	189 to 190
CCOC(=O)C(NC(=O)[C@H](C)NC(=O)Cc1cc(F)cc(F)c1)c1cc2ccccc2s1 (stereo partly drawn) [Example 174, Ethyl N-[N-(3,5-Difluorophenylacetyl)-L-alaninyl]-2-amino-2-(benzothiophen-2-yl)acetate]	189 to 190
COC(=O)C(NC(=O)[C@H](C)NC(=O)Cc1cc(F)cc(F)c1)c1csc2ccccc12 (stereo partly drawn) [Example 175, Methyl N-[N-(3,5-Difluorophenylacetyl)-L-alaninyl]-2-amino-2-(benzothiophen-3-yl)acetate]	185 to 186
COC(=O)C(NC(=O)[C@H](C)NC(=O)Cc1cc(F)cc(F)c1)c1cccs1 (stereo partly drawn) [Example 176, Methyl N-[N-(3,5-Difluorophenylacetyl)-L-alaninyl]-2-amino-2-(2-thienyl)acetate]	161 to 162
CCOC(=O)C(NC(=O)[C@H](C)NC(=O)Cc1cc(F)cc(F)c1)c1ccc2sccc2c1 (stereo partly drawn) [Example 177, Ethyl N-[N-(3,5-Difluorophenylacetyl)-L-alaninyl]-2-amino-2-(benzothiophen-5-yl)acetate]	126.5 to 127.5
COC(=O)[C@H](NC(=O)[C@H](C)NC(=O)Cc1cc(F)cc(F)c1)c1cccs1 [Example 178, Methyl N-[N-(3,5-Difluorophenylacetyl)-L-alaninyl]-(S)-2-amino-2-(2-thienyl)acetate]	180 to 181
COC(=O)[C@@H](NC(=O)[C@H](C)NC(=O)Cc1cc(F)cc(F)c1)c1ccc2cc(OC)ccc2c1 [Example 182, Methyl N-[N-(3,5-Difluorophenylacetyl)-L-alaninyl]-(S)-2-amino-2-(6-methoxy-2-naphthyl)acetate]	177 to 178
COC(=O)C(NC(=O)[C@H](C)NC(=O)Cc1cc(F)cc(F)c1)c1cccc(C(F)(F)F)c1 (stereo partly drawn) [Example 183, Methyl N-[N-(3,5-Difluorophenylacetyl)-L-alaninyl]-2-amino-2-(3-trifluoromethylphenyl)acetate]	133 to 134
C[C@H](NC(=O)CC1CC1)C(=O)N[C@H](C(=O)OC(C)(C)C)c1ccccc1 [Example 189, N-[N-(Cyclopropylacetyl)-L-alaninyl]-L-phenylglycine tert-Butyl Ester]	105 to 107
COC(=O)[C@@H](NC(=O)[C@@H](NC(=O)Cc1cc(F)cc(F)c1)c1ccccc1)c1ccccc1 [Example 199, N-[N-(3,5-Difluorophenylacetyl)-L-phenylglycinyl]-L-phenylglycine Methyl Ester]	222.8
COC(=O)[C@H](C)NC(=O)[C@H](C)NC(=O)Cc1ccccc1 [Example 200, N-[N-(Phenylacetyl)-L-alaninyl]-L-alanine Methyl Ester] (HELM PEPTIDE1{[O=C(Cc1ccccc1)[*:2]].A.A.[CO[*:1]]}$$$$V2.0)	140.5 to 142

Results, then the molecule that gave them:

melting point [°C]	Structure (SMILES)
198 to 200	COC(=O)[C@@H](NC(=O)[C@H](C)NC(=O)Cc1cc(F)cc(F)c1)c1ccccc1 [Example 111, N-[N-(3,5-Difluorophenylacetyl)-L-alaninyl]-L-phenylglycine Methyl Ester]
243 to 245	COC(=O)[C@@H](NC(=O)[C@H](C)NC(=O)[C@H](C)NC(=O)Cc1cc(F)cc(F)c1)c1ccccc1 [Example 112, N-[N-[N-(3,5-Difluorophenylacetyl)-L-alaninyl]-L-alaninyl]-L-phenylglycine Methyl Ester]
128 to 130	CCOC(=O)C(C)(NC(=O)[C@H](C)NC(=O)Cc1cc(F)cc(F)c1)c1ccccc1 (stereo partly drawn) [Example 123, Ethyl N-[N-(3,5-Difluorophenylacetyl)-L-alaninyl]-2-amino-2-phenylpropionate]
133 to 136	C[C@H](NC(=O)Cc1cc(F)cc(F)c1)C(=O)N[C@H](C(=O)OCC(C)(C)C)c1ccccc1 [Example 138, N-[N-(3,5-Difluorophenylacetyl)-L-alaninyl]-L-phenylglycine Neopentyl Ester]
117 to 118	C[C@H](NC(=O)Cc1cc(F)cc(F)c1)C(=O)N[C@@H](C(=O)OC(C)(C)C)c1cccs1 [Example 179, tert-Butyl N-[N-(3,5-Difluorophenylacetyl)-L-alaninyl]-(S)-2-amino-2-(2-thienyl)acetate]
138.7 to 140	CC[C@H](NC(=O)Cc1cc(F)cc(F)c1)C(=O)N[C@H](C(=O)OC(C)(C)C)c1ccccc1 [Example 191, N-[N-(3,5-Difluorophenylacetyl)-(S)-2-aminobutanoyl]-L-phenylglycine tert-Butyl Ester]
170.5 to 171.8	CC(C)[C@H](NC(=O)Cc1cc(F)cc(F)c1)C(=O)N[C@H](C(=O)OC(C)(C)C)c1ccccc1 [Example 192, N-[N-(3,5-Difluorophenylacetyl)-L-valinyl]-L-phenylglycine tert-Butyl Ester]
189.3	COC(=O)[C@@H](NC(=O)[C@H](CCSC)NC(=O)Cc1cc(F)cc(F)c1)c1ccccc1 [Example 193, N-[N-(3,5-Difluorophenylacetyl)-L-methioninyl]-L-phenylglycine Methyl Ester]
226.5	COC(=O)[C@@H](NC(=O)[C@@H](NC(=O)Cc1cc(F)cc(F)c1)C(C)C)c1ccccc1 [Example 194, N-[N-(3,5-Difluorophenylacetyl)-L-valinyl]-L-phenylglycine Methyl Ester]
178.4	COC(=O)[C@@H](NC(=O)[C@H](CC(C)C)NC(=O)Cc1cc(F)cc(F)c1)c1ccccc1 [Example 196, N-[N-(3,5-Difluorophenylacetyl)-L-leucinyl]-L-phenylglycine Methyl Ester]
188.3	COC(=O)[C@@H](NC(=O)[C@H](Cc1ccccc1)NC(=O)Cc1cc(F)cc(F)c1)c1ccccc1 [Example 197, N-[N-(3,5-Difluorophenylacetyl)-L-phenylalaninyl]-L-phenylglycine Methyl Ester]
142.3	COC(=O)[C@@H](NC(=O)CNC(=O)Cc1cc(F)cc(F)c1)c1ccccc1 [Example 198, N-[N-(3,5-Difluorophenylacetyl)glycinyl]-L-phenylglycine Methyl Ester]
